For 1 compound, IC50 and TGI results are on record in ChEMBL document CHEMBL4813994, “Discovery of novel and potent PARP/PI3K dual inhibitors for the treatment of cancer” (Eur J Med Chem, 2021).

Where only a bound is given, the exact number is not on record here.

The subject of one experiment is HCC1937. In words: Antiproliferative activity against human BRCA-1 deficient HCC1937 cells assessed as reduction in cell growth incubated for 7 days by cell titer-glo assay. Type of experiment: functional, cell-based. The conditions noted are these: HCC1937, 168 h.
Experiment [1] has as its system MDA-MB-468. In words: Antiproliferative activity against human BRCA proficient MDA-MB-468 cells assessed as reduction in cell growth incubated for 7 days by cell titer-glo assay. Type of experiment: functional, cell-based. The following applies: MDA-MB-468, 168 h.
Another experiment has as its system HCT-116. In words: Antiproliferative activity against human BRCA-2 deficient HCT-116 cells assessed as reduction in cell growth incubated for 7 days by cell titer-glo assay. Type of experiment: functional, cell-based. The conditions noted are these: HCT-116, 168 h.
Experiment [2] relates to MDA-MB-468. In words: Antitumor activity against human MDA-MB-468 cells xenografted in BALB/c mouse assessed as tumor growth inhibition at 50 mg/kg, ip administered for 32 days along with GDC-0980 relative to control. Type of experiment: functional. The following applies: time 32 day.
For the next experiment, the system named is SW-620. In words: Antiproliferative activity against human BRCA-2 proficient SW-620 cells assessed as reduction in cell growth incubated for 7 days by cell titer-glo assay. Type of experiment: functional, cell-based. The following applies: SW-620, 168 h.
Experiment [3] deals with MDA-MB-468. In words: Antitumor activity against human MDA-MB-468 cells xenografted in BALB/c mouse assessed as tumor growth inhibition at 50 mg/kg, ip once daily administered for 32 days relative to control. Type of experiment: functional. The following applies: time 32 day.
A further experiment deals with MDA-MB-231. In words: Antiproliferative activity against human BRCA proficient MDA-MB-231 cells assessed as reduction in cell growth incubated for 7 days by cell titer-glo assay. Type of experiment: functional, cell-based. The following applies: MDA-MB-231, 168 h.

Turning to `O=C(c1cc(Cc2n[nH]c(=O)c3ccccc23)ccc1F)N1CCN(C(=O)C2CC2)CC1` [OLAPARIB], the 50% inhibitory concentration (IC50) in the experiment with HCC1937, in the experiment with MDA-MB-468 [1], in the experiment on HCT-116, in the experiment with SW-620 and in the experiment with MDA-MB-231 was over 10 µM in each case. Also, the values for the TGI in the experiment on MDA-MB-468 [2] and in the experiment on MDA-MB-468 [3] were 45.93% and 27.91%, respectively.
